In article PMC11671411 (Oncology Research, 2024):

Biological target: T1, PI3KCD (Homo sapiens, UniProt O00329)
T1 construct: gene PIK3CD
Assay: PI 3-Kinase (human) HTRF enzyme assay with the PI3KCD isoform
Format: biochemical

T1 sequence (O00329 whole entry): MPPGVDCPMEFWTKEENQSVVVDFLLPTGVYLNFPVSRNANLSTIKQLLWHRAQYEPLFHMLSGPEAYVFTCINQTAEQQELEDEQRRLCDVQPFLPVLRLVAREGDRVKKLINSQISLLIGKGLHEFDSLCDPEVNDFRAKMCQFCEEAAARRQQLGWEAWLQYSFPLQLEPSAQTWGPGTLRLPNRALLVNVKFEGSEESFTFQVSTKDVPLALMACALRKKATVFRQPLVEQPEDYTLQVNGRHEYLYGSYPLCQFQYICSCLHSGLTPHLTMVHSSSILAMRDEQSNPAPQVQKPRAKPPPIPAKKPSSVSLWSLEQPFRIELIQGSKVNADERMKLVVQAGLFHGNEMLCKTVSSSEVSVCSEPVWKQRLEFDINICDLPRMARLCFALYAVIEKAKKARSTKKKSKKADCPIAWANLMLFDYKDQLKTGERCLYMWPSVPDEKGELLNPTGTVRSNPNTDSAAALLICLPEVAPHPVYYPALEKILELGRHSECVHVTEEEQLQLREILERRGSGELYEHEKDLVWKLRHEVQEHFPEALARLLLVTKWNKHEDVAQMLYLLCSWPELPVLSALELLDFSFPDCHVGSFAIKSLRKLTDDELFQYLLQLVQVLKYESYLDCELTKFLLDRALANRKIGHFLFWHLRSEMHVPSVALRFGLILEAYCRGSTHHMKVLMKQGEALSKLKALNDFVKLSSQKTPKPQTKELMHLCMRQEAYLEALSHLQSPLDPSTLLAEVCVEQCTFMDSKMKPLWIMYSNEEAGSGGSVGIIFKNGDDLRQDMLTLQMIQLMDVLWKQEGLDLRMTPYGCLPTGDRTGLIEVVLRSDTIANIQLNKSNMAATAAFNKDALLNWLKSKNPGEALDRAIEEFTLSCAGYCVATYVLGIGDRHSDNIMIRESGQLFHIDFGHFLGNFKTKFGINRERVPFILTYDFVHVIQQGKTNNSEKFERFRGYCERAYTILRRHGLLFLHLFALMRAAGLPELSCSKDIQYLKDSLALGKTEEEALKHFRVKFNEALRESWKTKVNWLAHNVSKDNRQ

c1ccc2c(c1)c1ccccc1c1nc3c4ccccc4c4ccccc4c3nc21 [SBL-JP-0004, tetrabenzo[a,c,h,j]phenazine] was tested, and the IC50 was 0.201 µM.
